In US6669945B1, “Universal T-cell epitopes for anti-malarial vaccines” (New York University, priority 1997, dated 2003):
Where two headings read alike, the source gives them in different places. Blank lines part the entries; values can stand above or below the compound they belong to. Where no end group is shown, it is not given here. The star is where a group is joined. Biotin = O=C1N[C@H]2[C@H](CS[C@H]2CCCCC(=O)*)N1

Assays:
[1] = molecular target: DQ 7 (DQA1*0501/DQB1*0301) (Homo sapiens, UniProt P01909+P01920); experiment: Peptide competition assay, soluble DQ molecules; format: binding; conditions: soluble DQ 7 (FIG. 3B)
[2] = molecular target: T1, DQ 9 (DQA1*0201/DQB1*0303) (Homo sapiens, UniProt P01909+P01920, A45G/C70K/E183D/E77G/F237L/F77L/G63E/H199R/I129T/K197E/L178F/L74F/Q57E/Q76R/R75H/S185I/S97I/T217I/V73L/Y48F/Y58L); experiment: Peptide competition assay, soluble DQ molecules; format: binding; conditions: soluble DQ 9 (FIG. 3A)
T1 construct: made in house; host or cells: insect cells, baculovirus expression system

[3] = molecular target: DR 7 (DRB1*0701) (Homo sapiens, UniProt P01903+P01911, A100R/A102G/A103Q/D57E/D86V/E43K/F76Y/K127E/L162R/M171V/P40G/Q125H/Q99D/R33Q/R42Y/R54Q/S133A/S66F/T210M/V115G/Y107V/Y59L/Y89S); experiment: biochemical; format: binding; conditions: DR 7 DRB1*0701, biotinyl-peptide GFK(A)7, pH 5; read-out: Competitor Peptide IC50
[4] = molecular target: T2, DR 1 (DRB1*0101) (Homo sapiens, UniProt P01903+P01911, A100R/D57E/F55L/F60I/F76Y/I96L/L162R/M171V/P40L/Q125E/R42F/V115G/Y59C); experiment: biochemical; format: binding; conditions: DR 1 DRB1*0101, biotinyl-peptide GFK(A)7; read-out: Competitor Peptide IC50
T2 construct: The class II molecules in the cell extracts were purified by immunoaffnity; endogenous in cells

[5] = molecular target: DR 13 (DRB1*1301) (Homo sapiens, UniProt P01903+P01911, A100E/A169T/K41T/L162R/M171V/P40S/Q125H/Q178H/Q39Y/Q99D/R42S/S66N/T262R/W38E/Y61H); experiment: biochemical; conditions: soluble DR 13, indicator GFK(A)7 (FIG. 2B); read-out: IC50, inhibition of binding of biotinylated GFK(A)7
[6] = molecular target: DR 8 (DRB1*0801) (Homo sapiens, UniProt P01903+P01911, A100R/A103L/A169T/D86S/F76Y/H45Y/I96F/K41T/L162R/M171V/P40S/Q125H/Q178H/Q39Y/Q99D/R218S/R42G/S66Y/V115G/W38E); experiment: biochemical; format: binding; conditions: DR 8 DRB1*0801, biotinyl-peptide GYR(A)6L; read-out: Competitor Peptide IC50
[7] = molecular target: T3, DR 3 (DRB1*0301) (Homo sapiens, UniProt P01903+P01911, A100K/A102G/A103R/A169T/F55Y/I96L/K41T/L162R/M171V/P40S/Q125H/Q178H/Q39Y/R42S/S66N/T106N/T262R/W38E/Y61H); experiment: biochemical; format: binding; conditions: DR 3 DRB1*0301, biotinyl-peptide IAYD(A)5; read-out: Competitor Peptide IC50
T3 construct: The class II molecules in the cell extracts were purified by immunoaffnity; endogenous in cells

[8] = molecular target: T4, DR 4 (DRB1*0401) (Homo sapiens, UniProt P01903+P01911, A100K/A169T/F76Y/I96L/K127E/L162R/M171V/N62H/P40V/Q125Y/R42H/S133A/S149N/S66Y/V115G/V209L/W38E); experiment: biochemical; format: binding
T4 construct: The class II molecules in the cell extracts were purified by immunoaffnity; endogenous in cells

[9] = molecular target: T5, DR 2 (DRB5*0101) (Homo sapiens, UniProt P01903+Q30154); experiment: biochemical; format: binding; conditions: DR 2 DRB5*0101, biotinyl-peptide MBP; read-out: Competitor Peptide IC50
T5 construct: expressed in transfected cells; host or cells: L cell transfectant L416.3

[10] = molecular target: DR 11 (5) (DRB1*1101) (Homo sapiens, UniProt P01903+P01911, A100R/A169T/A87E/I96F/K41T/L162R/M171V/P40S/Q125H/Q178H/Q39Y/Q99D/R42S/S66Y/T262R/V115G/W38E); experiment: biochemical; format: binding; conditions: DR 11 (5) DRB1*1101, biotinyl-peptide TT831-843; read-out: Competitor Peptide IC50
[11] = system: EBV-B cell line 9065 (DRB1*1301/DQB1*0603); experiment: Flow cytometry binding of biotinylated peptides to EBV-B cells; parameters: species or system human; conditions: biotinylated peptide, EBV-B 9065 cells
Method: For flow cytometry, EBV-B cells or L cells (2×10^5 cells), were incubated with an equal volume (100 μl) of biotinylated peptide (200 μg/ml) in each well of a U-bottomed 96-well plate. Following a 4-hour incubation on ice with gentle agitation, the unbound peptides were removed by washing. To increase the sensitivity of the fluorescent signal, two layers of FITC-Avidin were used to label the cells by incubating first with FITC-Avidin D, followed by biotinylated anti-Avidin D and again FITC-Avidin DCS (Vetor, Burlingame Calif.). Propidium Iodide (2.8 μg/ml) was added prior to FACS analysis to allow gating on viable cells.

IC50 [1]: 0.5 µM | IC50 [2]: 0.5 µM
Compound: CSCC[C@H](NC(=O)[C@H](CCCNC(=N)N)NC(=O)[C@H](CCSC)NC(=O)[C@H](CCCCN)NC(=O)[C@H](CO)NC(=O)[C@@H](NC(=O)[C@@H]1CCCN1C(=O)[C@H](CCCCN)NC(=O)[C@@H]1CCCN1C(=O)[C@@H]1CCCN1C(=O)[C@@H](N)CCCCN)C(C)C)C(=O)N[C@@H](C)C(=O)N[C@H](C(=O)N1CCC[C@H]1C(=O)N[C@@H](CC(C)C)C(=O)N[C@@H](CC(C)C)C(=O)N[C@@H](CCSC)C(=O)N[C@@H](CCC(N)=O)C(=O)N[C@@H](C)C(=O)O)[C@@H](C)O [CLIP83-101]

Compound: CC(C)[C@H](NC(=O)[C@H](CC(N)=O)NC(=O)[C@@H]1CCCN1C(=O)[C@H](CC(N)=O)NC(=O)[C@H](C)NC(=O)[C@H](CC(N)=O)NC(=O)[C@@H]1CCCN1C(=O)[C@H](CC(=O)O)NC(=O)[C@@H](NC(=O)[C@H](CC(N)=O)NC(=O)[C@@H]1CCCN1C(=O)[C@H](CC(N)=O)NC(=O)[C@H](C)NC(=O)[C@H](CC(N)=O)NC(=O)[C@@H]1CCCN1C(=O)[C@@H](N)CC(=O)O)C(C)C)C(=O)O [T1]
IC50 [3]: > 100 µM | IC50 [4]: > 100 µM | IC50 [5]: > 100 µM | IC50 [6]: > 100 µM | IC50 [7]: > 100 µM | IC50 ([8]; DR 4 DRB1*0401, biotinyl-peptide UD4, read-out: Competitor Peptide IC50): > 100 µM | IC50 ([8]; soluble DR 4, indicator GFK(A)7 (FIG. 2A), read-out: IC50, inhibition of binding of biotinylated GFK(A)7): > 100 µM | IC50 [9]: > 100 µM | IC50 [10]: > 100 µM

Compound: Biotinyl-T1: NH2 terminal biotinylated T1 peptide (Biotin-DPNANPNVDPNANPNV)
MFC [11]: could not be detected
